target: T1, Human TRPC6 (Homo sapiens, UniProt Q9Y210); assay: Evaluation of TRPC6 channel inhibitory activity (1), FLIPR Calcium 5 Assay Kit, OAG stimulation (Compound Nos. 1-1293); assay type: cell-based; conditions: Human TRPC6 stably-expressing cells, OAG 30 μM, FLIPR Calcium 5 Assay Kit; read-out: Inhibitory activity (pIC50 class) (converted)
T1 construct: expressed in transfected cells
T1 sequence (Q9Y210 1-931): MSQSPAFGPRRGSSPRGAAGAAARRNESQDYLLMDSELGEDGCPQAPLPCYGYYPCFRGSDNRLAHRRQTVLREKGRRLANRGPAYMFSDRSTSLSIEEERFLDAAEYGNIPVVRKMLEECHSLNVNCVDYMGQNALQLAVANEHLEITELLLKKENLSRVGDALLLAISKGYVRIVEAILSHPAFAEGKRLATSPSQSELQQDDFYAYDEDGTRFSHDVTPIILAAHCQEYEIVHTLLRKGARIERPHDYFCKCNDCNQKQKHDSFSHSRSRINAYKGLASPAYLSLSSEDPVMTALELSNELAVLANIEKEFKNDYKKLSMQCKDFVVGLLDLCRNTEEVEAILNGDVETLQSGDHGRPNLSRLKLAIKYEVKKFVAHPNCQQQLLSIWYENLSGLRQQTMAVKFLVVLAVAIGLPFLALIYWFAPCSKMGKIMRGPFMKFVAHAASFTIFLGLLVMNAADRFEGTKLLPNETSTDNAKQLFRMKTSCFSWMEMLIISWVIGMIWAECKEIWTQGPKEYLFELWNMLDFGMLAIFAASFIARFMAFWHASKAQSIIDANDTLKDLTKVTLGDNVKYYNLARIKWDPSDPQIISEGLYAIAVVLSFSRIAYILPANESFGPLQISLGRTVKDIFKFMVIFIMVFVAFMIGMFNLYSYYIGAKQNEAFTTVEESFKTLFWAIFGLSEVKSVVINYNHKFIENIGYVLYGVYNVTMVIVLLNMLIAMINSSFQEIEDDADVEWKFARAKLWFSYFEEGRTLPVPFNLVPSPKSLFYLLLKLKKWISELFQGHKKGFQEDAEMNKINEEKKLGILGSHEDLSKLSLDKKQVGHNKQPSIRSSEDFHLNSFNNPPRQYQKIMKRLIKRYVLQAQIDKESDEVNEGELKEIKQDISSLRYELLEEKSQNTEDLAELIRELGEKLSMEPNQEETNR
How it was run: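 The FLIPR signal is maximum fluorescence after 30 μM OAG minus minimum before compound, measured in a human TRPC6 stable line loaded with Calcium 5 dye. Compounds were preincubated 20 min. pIC50 came from four-parameter logistic fitting of inhibition rates and is given as symbol ranges.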

SMILES | IC50
Cc1cc(Oc2cc(C#N)ccc2-c2ccc(CC(C)(C)N)cn2)cc(N2CCOCC2)n1 [compound 333, 4-[5-(2-amino-2-methylpropyl)pyridin-2-yl]-3-(2-methyl-6-morpholin-4-ylpyridin-4-yl)oxybenzonitrile] | < 0.01 µM
Cn1nc(C2CC2)cc1Oc1cc(C#N)ccc1-c1ccc(CC(C)(C)N)cn1 [compound 334, 4-[5-(2-amino-2-methylpropyl)pyridin-2-yl]-3-(5-cyclopropyl-2-methylpyrazol-3-yl)oxybenzonitrile] | < 0.01 µM
Cn1nc(C2CC2)cc1Oc1cc(C#N)ccc1-c1ccc(C(O)C(C)(C)N)cn1 (stereo not drawn) [compound 335, 4-[5-(2-amino-1-hydroxy-2-methylpropyl)pyridin-2-yl]-3-(5-cyclopropyl-2-methylpyrazol-3-yl)oxybenzonitrile] | < 0.01 µM
CCCCc1cc(Oc2cc(C#N)ccc2-c2ccc(C(O)C(C)(C)N)cn2)n(C)n1 (stereo not drawn) [compound 336, 4-[5-(2-amino-1-hydroxy-2-methylpropyl)pyridin-2-yl]-3-(5-butyl-2-methylpyrazol-3-yl)oxybenzonitrile] | < 0.01 µM
CCCCc1cc(Oc2cc(C#N)ccc2-c2ncc(C(O)CN)cn2)n(C)n1 (stereo not drawn) [compound 337, 4-[5-(2-amino-1-hydroxyethyl)pyrimidin-2-yl]-3-(5-butyl-2-methylpyrazol-3-yl)oxybenzonitrile] | < 0.01 µM
Cn1nc(-c2ccccn2)cc1Oc1cc(C#N)ccc1-c1ccc(CC(C)(C)N)cn1 [compound 338, 4-[5-(2-amino-2-methylpropyl)pyridin-2-yl]-3-(2-methyl-5-pyridin-2-ylpyrazol-3-yl)oxybenzonitrile] | < 0.01 µM
Cc1nc(Oc2cc(C#N)ccc2-n2cc([C@@H](O)CN)cn2)cc(-c2ccccc2F)n1 [compound 339, 4-[4-[(1R)-2-amino-1-hydroxyethyl]pyrazol-1-yl]-3-[6-(2-fluorophenyl)-2-methylpyrimidin-4-yl]oxybenzonitrile] | 0.01 to 1 µM
Cc1nc(Oc2cc(C#N)ccc2-n2cc([C@@H](O)CN)cn2)cc(-c2ccccc2Cl)n1 [compound 340, 4-[4-[(1R)-2-amino-1-hydroxyethyl]pyrazol-1-yl]-3-[6-(2-chlorophenyl)-2-methylpyrimidin-4-yl]oxybenzonitrile] | 0.01 to 1 µM
Cc1nc(Oc2cc(C#N)ccc2-n2cc([C@@H](O)CN)cn2)cc(-c2ccccc2C#N)n1 [compound 341, 4-[4-[(1R)-2-amino-1-hydroxyethyl]pyrazol-1-yl]-3-[6-(2-cyanophenyl)-2-methylpyrimidin-4-yl]oxybenzonitrile] | < 0.01 µM
Cc1nc(Oc2cc(C#N)ccc2-n2cc([C@H](O)CN)cn2)cc(-c2ccccc2F)n1 [compound 342, 4-[4-[(1S)-2-amino-1-hydroxyethyl]pyrazol-1-yl]-3-[6-(2-fluorophenyl)-2-methylpyrimidin-4-yl]oxybenzonitrile] | 0.01 to 1 µM
Cc1nc(Oc2cc(C#N)ccc2-n2cc([C@H](O)CN)cn2)cc(-c2ccccc2Cl)n1 [compound 343, 4-[4-[(1S)-2-amino-1-hydroxyethyl]pyrazol-1-yl]-3-[6-(2-chlorophenyl)-2-methylpyrimidin-4-yl]oxybenzonitrile] | 0.01 to 1 µM
Cc1nc(Oc2cc(C#N)ccc2-n2cc([C@H](O)CN)cn2)cc(-c2ccccc2C#N)n1 [compound 344, 4-[4-[(1S)-2-amino-1-hydroxyethyl]pyrazol-1-yl]-3-[6-(2-cyanophenyl)-2-methylpyrimidin-4-yl]oxybenzonitrile] | < 0.01 µM
CCc1cc(Oc2cc(C#N)ccc2-c2ccc(OCCN)cn2)n(C)n1 [compound 345, 4-[5-(2-aminoethoxy)pyridin-2-yl]-3-(5-ethyl-2-methylpyrazol-3-yl)oxybenzonitrile] | 0.01 to 1 µM
Cn1nc(-c2ccccc2)cc1Oc1cc(C#N)ccc1-c1cnc(CCN)nc1 [compound 346, 4-[2-(2-aminoethyl)pyrimidin-5-yl]-3 (2-methyl-5-phenylpyrazol-3-yl)oxybenzonitrile] | < 0.01 µM
Cn1nc(C2CC2)cc1Oc1cc(C#N)ccc1-c1cnc(CCN)nc1 [compound 347, 4-[2-(2-aminoethyl)pyrimidin-5-yl]-3-(5-cyclopropyl-2-methylpyrazol-3 yl)oxybenzonitrile] | > 1 µM
Cn1nc(C2CC2)cc1Oc1cc(C#N)ccc1-c1ccc(OCCN)cn1 [compound 348, 4-[5-(2-aminoethoxy)pyridin-2-yl]-3-(5-cyclopropyl-2-methylpyrazol-3-yl)oxybenzonitrile] | < 0.01 µM
Cc1cc(Oc2cc(C#N)ccc2-c2ccc(OCCN)cn2)n(C)n1 [compound 349, 4-[5-(2-aminoethoxy)pyridin-2-yl]-3-(2,5-dimethylpyrazol-3-yl)oxybenzonitrile] | > 1 µM

The remaining lines, values ahead:

IC50 | SMILES
0.01 to 1 µM | Cc1cc(Oc2cc(C#N)ccc2-c2ccc(OCCN)cn2)cc(N2CCOCC2)n1 [compound 350, 4-[5-(2-aminoethoxy)pyridin-2-yl]-3-(2-methyl-6-morpholin-4-ylpyridin-4-yl)oxybenzonitrile]
0.01 to 1 µM | Cc1nc(Oc2cc(C#N)ccc2-n2cc([C@@H](O)CN)cn2)cc(-c2ccccc2C(F)(F)F)n1 [compound 351, 4-[4-[(1R)-2-amino-1-hydroxyethyl]pyrazol-1-yl]-3-[2-methyl-6-[2-(trifluoromethyl)phenyl]pyrimidin-4-yl]oxybenzonitrile]
0.01 to 1 µM | Cc1nc(Oc2cc(C#N)ccc2-n2cc([C@@H](O)CN)cn2)cc(-c2ccccn2)n1 [compound 352, 4-[4-[(1R)-2-amino-1-hydroxyethyl]pyrazol-1-yl]-3-(2-methyl-6-pyridin-2-ylpyrimidin-4-yl)oxybenzonitrile]
0.01 to 1 µM | Cc1nc(Oc2cc(C#N)ccc2-n2cc([C@@H](O)CN)cn2)cc(-c2cccc(C(F)(F)F)c2)n1 [compound 353, 4-[4-[(1R)-2-amino-1-hydroxyethyl]pyrazol-1-yl]-3-[2-methyl-6-[3-(trifluoromethyl)phenyl]pyrimidin-4-yl]oxybenzonitrile]
0.01 to 1 µM | Cc1nc(Oc2cc(C#N)ccc2-n2cc([C@H](O)CN)cn2)cc(-c2ccccc2C)n1 [compound 354, 4-[4-[(1S)-2-amino-1-hydroxyethyl]pyrazol-1-yl]-3-[2-methyl-6-(2-methylphenyl)pyrimidin-4-yl]oxybenzonitrile]
> 1 µM | Cc1nc(Oc2cc(C#N)ccc2-n2cc([C@H](O)CN)cn2)cc(-c2ccccc2C(F)(F)F)n1 [compound 355, 4-[4-[(1S)-2-amino-1-hydroxyethyl]pyrazol-1-yl]-3-[2-methyl-6-[2-(trifluoromethyl)phenyl]pyrimidin-4-yl]oxybenzonitrile]
0.01 to 1 µM | Cc1nc(Oc2cc(C#N)ccc2-n2cc([C@H](O)CN)cn2)cc(-c2ccccn2)n1 [compound 356, 4-[4-[(1S)-2-amino-1-hydroxyethyl]pyrazol-1-yl]-3-(2-methyl-6-pyridin-2-ylpyrimidin-4-yl)oxybenzonitrile]
0.01 to 1 µM | Cc1nc(Oc2cc(C#N)ccc2-n2cc([C@H](O)CN)cn2)cc(-c2cccc(C(F)(F)F)c2)n1 [compound 357, 4-[4-[(1S)-2-amino-1-hydroxyethyl]pyrazol-1-yl]-3-[2-methyl-6-[3-(trifluoromethyl)phenyl]pyrimidin-4-yl]oxybenzonitrile]
0.01 to 1 µM | Cc1nc(Oc2cc(C#N)ccc2-n2cc([C@@H](O)CN)cn2)cc(-c2ccccc2C)n1 [compound 358, 4-[4-[(1R)-2-amino-1-hydroxyethyl]pyrazol-1-yl]-3-[2-methyl-6-(2-methylphenyl)pyrimidin-4-yl]oxybenzonitrile]
0.01 to 1 µM | Cn1nc(C2CC2)c(F)c1Oc1cc(C#N)ccc1-c1ncc(CCN)cn1 [compound 359, 4-[5-(2-aminoethyl)pyrimidin-2-yl]-3-(5-cyclopropyl-4-fluoro-2-methylpyrazol-3-yl)oxybenzonitrile]
< 0.01 µM | Cn1nc(-c2ccccc2)c(F)c1Oc1cc(C#N)ccc1-c1ncc(CCN)cn1 [compound 360, 4-[5-(2-aminoethyl)pyrimidin-2-yl]-3-(4-fluoro-2-methyl-5-phenylpyrazol-3-yl)oxybenzonitrile]
< 0.01 µM | CCCc1cc(Oc2cc(C#N)ccc2-c2ccc(CN)cn2)n(C)n1 [compound 361, 4-[5-(aminomethyl)pyridin-2-yl]-3-(2-methyl-5-propylpyrazol-3-yl)oxybenzonitrile]
< 0.01 µM | CC(C)c1cc(Oc2cc(C#N)ccc2-c2ccc(CN)cn2)n(C)n1 [compound 362, 4-[5-(aminomethyl)pyridin-2-yl]-3-(2-methyl-5-propan-2-ylpyrazol-3-yl)oxybenzonitrile]

Source: US20230167073A1 (Teijin Pharma Limited, priority 2020, published 2023)
